Measured values reported in patent US5202315A, “Cephalosporin compounds” (Lucky, Ltd., priority 1989, dated 1993).
In brackets after ≈: the same amount, converted by molar mass. Where two headings read alike, the source gives them in different places.

Key:
Assay type in all cases: cell-based
[1] = system: Staphylococcus aureus methicillin susceptible; test: Antibacterial activity against clinically isolated strains, MIC; details: methicillin susceptible, 42 clinical isolates, broth microdilution test; for MIC90: read-out: MIC 90%
[2] = system: Staphylococcus aureus methicillin resistant; test: as above; details: methicillin resistant, 7 clinical isolates, broth microdilution test; for MIC90: read-out: MIC 90%
Escherichia coli = test: as above; details: 38 clinical isolates, broth microdilution test
Pseudomonas aeruginosa = test: as above
[3] = system: Morganella morganii ATCC 8076h; test: Antibacterial activity, MIC; details: ATCC8076H, agar two-fold dilution, 37° C., 20 hours
Method in brief: (§1)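 Values reflect agar dilution testing: Mueller-Hinton medium, two-fold compound series, 2 μl inoculum of 10^7 CFU/ml, 20 h incubation at 37 °C.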

[4] = system: Staphylococcus epidermidis ATCC 12228; test: Antibacterial activity, MIC; details: ATCC12228, ATCC 12228, agar two-fold dilution, 37° C., 20 hours, read-out: MIC
Method in brief: as §1

[5] = system: Proteus mirabilis ATCC 25933; test: Antibacterial activity, MIC; details: ATCC25933, ATCC 25933, agar two-fold dilution, 37° C., 20 hours, read-out: MIC
Method in brief: as §1

[6] = system: Pseudomonas aeruginosa ATCC 10145; test: Antibacterial activity, MIC; details: ATCC10145, ATCC 10145, agar two-fold dilution, 37° C., 20 hours, read-out: MIC
Method in brief: as §1

[7] = system: Enterobacter aerogenes ATCC 29751; test: Antibacterial activity, MIC; details: Klebsiella aerogenes, ATCC29751; ATCC 29751; agar two-fold dilution, 37° C., 20 hours; read-out: MIC
Method in brief: as §1

[8] = system: Shigella flexneri ATCC 11836; test: Antibacterial activity, MIC; details: ATCC11836, agar two-fold dilution, 37° C., 20 hours
Method in brief: as §1

[9] = system: Staphylococcus aureus ATCC 6538p; test: Antibacterial activity, MIC; details: ATCC6538P, ATCC 6538p, agar two-fold dilution, 37° C., 20 hours, read-out: MIC
Method in brief: as §1

[10] = system: Pseudomonas aeruginosa ATCC 27853; test: Antibacterial activity, MIC; details: ATCC27853, ATCC 27853, agar two-fold dilution, 37° C., 20 hours, read-out: MIC
Method in brief: as §1

[11] = system: Acinetobacter calcoaceticus ATCC 15473; test: Antibacterial activity, MIC; details: ATCC15473, ATCC 15473, agar two-fold dilution, 37° C., 20 hours, read-out: MIC
Method in brief: as §1

[12] = system: Streptococcus faecalis ATCC 29212; test: Antibacterial activity, MIC; details: Enterococcus faecalis, ATCC29212; ATCC 29212; agar two-fold dilution, 37° C., 20 hours; read-out: MIC
Method in brief: as §1

[13] = system: Serratia marcescens ATCC 27117; test: Antibacterial activity, MIC; details: ATCC27117, ATCC 27117, agar two-fold dilution, 37° C., 20 hours, read-out: MIC
Method in brief: as §1

[14] = system: Shigella sonnei ATCC 11060; test: Antibacterial activity, MIC; details: ATCC11060, ATCC 11060, agar two-fold dilution, 37° C., 20 hours, read-out: MIC
Method in brief: as §1

[15] = system: Escherichia coli ATCC 10536; test: Antibacterial activity, MIC; details: ATCC10536, agar two-fold dilution, 37° C., 20 hours
Method in brief: as §1

[16] = system: Escherichia coli ATCC 25922; test: Antibacterial activity, MIC; details: ATCC25922, agar two-fold dilution, 37° C., 20 hours
Method in brief: as §1

[17] = system: Klebsiella pneumoniae ATCC 10031; test: Antibacterial activity, MIC; details: ATCC10031, ATCC 10031, agar two-fold dilution, 37° C., 20 hours, read-out: MIC
Method in brief: as §1

[18] = system: Staphylococcus aureus ATCC 10537; test: Antibacterial activity, MIC; details: ATCC10537, ATCC 10537, agar two-fold dilution, 37° C., 20 hours, read-out: MIC
Method in brief: as §1

[19] = system: Proteus vulgaris ATCC 6059; test: Antibacterial activity, MIC; details: ATCC6059, ATCC 6059, agar two-fold dilution, 37° C., 20 hours, read-out: MIC
Method in brief: as §1

[20] = system: Providencia rettgeri ATCC 9250; test: Antibacterial activity, MIC; details: ATCC9250, agar two-fold dilution, 37° C., 20 hours
Method in brief: as §1

[21] = system: Salmonella typhimurium ATCC 14028; test: Antibacterial activity, MIC; details: Salmonella enterica; ATCC 14028; agar two-fold dilution, 37° C., 20 hours; read-out: MIC
Method in brief: as §1

[22] = system: Enterobacter cloacae ATCC 27508; test: Antibacterial activity, MIC; details: ATCC27508, ATCC 27508, agar two-fold dilution, 37° C., 20 hours, read-out: MIC
Method in brief: as §1

[23] = system: Pseudomonas aeruginosa ATCC 25619; test: Antibacterial activity, MIC; details: ATCC25619, ATCC 25619, agar two-fold dilution, 37° C., 20 hours, read-out: MIC
Method in brief: as §1

[24] = system: Micrococcus luteus ATCC 9341; test: Antibacterial activity, MIC; details: ATCC9341, ATCC 9341, agar two-fold dilution, 37° C., 20 hours, read-out: MIC
Method in brief: as §1

[25] = system: Bacillus cereus ATCC 11778; test: Antibacterial activity, MIC; details: ATCC11778, ATCC 11778, agar two-fold dilution, 37° C., 20 hours, read-out: MIC
Method in brief: as §1

[26] = system: Bacillus megaterium ATCC 9885; test: Antibacterial activity, MIC; details: Priestia megaterium, ATCC9885; ATCC 9885; agar two-fold dilution, 37° C., 20 hours; read-out: MIC
Method in brief: as §1

[27] = system: Citrobacter freundii ATCC 8090; test: Antibacterial activity, MIC; details: ATCC8090, ATCC 8090, agar two-fold dilution, 37° C., 20 hours, read-out: MIC
Method in brief: as §1

Klebsiella pneumoniae = test: Antibacterial activity against clinically isolated strains, MIC; details: 10 clinical isolates, broth microdilution test; for MIC90: read-out: MIC 90%
[28] = 54 clinical isolates, broth microdilution test

Row | SMILES | MIC50 [1] | MIC90 [1] | MIC50 [2] | MIC90 [2] | MIC50 (Escherichia coli) | MIC90 (Escherichia coli) | MIC50 (Pseudomonas aeruginosa; [28]) | MIC [3] | MIC [4] | MIC [5] | MIC [6] | MIC [7] | MIC [8] | MIC [9] | MIC [10] | MIC [11] | MIC [12] | MIC [13] | MIC [14] | MIC [15] | also measured
1 | C#CCO/N=C(\C(=O)NC1C(=O)N2C(C(=O)[O-])=C(CSc3nc(N)cc(N)[n+]3C)CSC12)c1csc(N)n1 (stereo not shown) [Compound I-46] | 0.25 µg/mL (≈ 0.434 µM) | 0.25 µg/mL (≈ 0.434 µM) | > 32 µg/mL | > 32 µg/mL | 0.13 µg/mL (≈ 0.226 µM) | 0.25 µg/mL (≈ 0.434 µM) | 4 µg/mL (≈ 6.95 µM) | ≤ 0.008 µg/mL | 0.031 µg/mL (≈ 0.0539 µM) | 0.063 µg/mL (≈ 0.109 µM) | 4 µg/mL (≈ 6.95 µM) | 0.25 µg/mL (≈ 0.434 µM) | 0.016 µg/mL (≈ 0.0278 µM) | 0.13 µg/mL (≈ 0.226 µM) | 2 µg/mL (≈ 3.47 µM) | 2 µg/mL (≈ 3.47 µM) | 16 µg/mL (≈ 27.8 µM) | 0.13 µg/mL (≈ 0.226 µM) | 0.063 µg/mL (≈ 0.109 µM) | 0.063 µg/mL (≈ 0.109 µM) | MIC90 (Pseudomonas aeruginosa; 54 clinical isolates, broth microdilution test, read-out: MIC 90%): 8 µg/mL (≈ 13.9 µM); MIC [16]: 0.063 µg/mL (≈ 0.109 µM); MIC [17]: ≤ 0.008 µg/mL; MIC [18]: 0.13 µg/mL (≈ 0.226 µM); MIC [19]: 0.13 µg/mL (≈ 0.226 µM); MIC [20]: ≤ 0.008 µg/mL; MIC [21]: 0.25 µg/mL (≈ 0.434 µM); MIC [22]: ≤ 0.008 µg/mL; MIC [23]: 0.5 µg/mL (≈ 0.869 µM); MIC [24]: 0.016 µg/mL (≈ 0.0278 µM); MIC [25]: 8 µg/mL (≈ 13.9 µM); MIC [26]: 0.063 µg/mL (≈ 0.109 µM); MIC [27]: 0.063 µg/mL (≈ 0.109 µM); MIC50 (Klebsiella pneumoniae): 0.13 µg/mL (≈ 0.226 µM); MIC90 (Klebsiella pneumoniae): 0.13 µg/mL (≈ 0.226 µM)
2 | C#CCO/N=C(\C(=O)NC1C(=O)N2C(C(=O)[O-])=C(CSc3nc(N)cc(N)[n+]3CC)CSC12)c1csc(N)n1 (stereo not shown) [Compound I-47] | 0.25 µg/mL (≈ 0.424 µM) | 0.25 µg/mL (≈ 0.424 µM) | 64 µg/mL (≈ 109 µM) | 64 µg/mL (≈ 109 µM) | 0.063 µg/mL (≈ 0.107 µM) | 0.25 µg/mL (≈ 0.424 µM) | 4 µg/mL (≈ 6.78 µM) | ≤ 0.008 µg/mL | 0.031 µg/mL (≈ 0.0526 µM) | 0.13 µg/mL (≈ 0.22 µM) | 8 µg/mL (≈ 13.6 µM) | 0.5 µg/mL (≈ 0.848 µM) | 0.016 µg/mL (≈ 0.0271 µM) | 0.25 µg/mL (≈ 0.424 µM) | 2 µg/mL (≈ 3.39 µM) | 4 µg/mL (≈ 6.78 µM) | 32 µg/mL (≈ 54.3 µM) | 0.13 µg/mL (≈ 0.22 µM) | 0.13 µg/mL (≈ 0.22 µM) | 0.13 µg/mL (≈ 0.22 µM) | MIC90 (Pseudomonas aeruginosa): 16 µg/mL (≈ 27.1 µM); MIC [16]: 0.13 µg/mL (≈ 0.22 µM); MIC [17]: ≤ 0.008 µg/mL; MIC [18]: 0.13 µg/mL (≈ 0.22 µM); MIC [19]: 0.13 µg/mL (≈ 0.22 µM); MIC [20]: ≤ 0.008 µg/mL; MIC [21]: 0.25 µg/mL (≈ 0.424 µM); MIC [22]: 0.016 µg/mL (≈ 0.0271 µM); MIC [23]: 1 µg/mL (≈ 1.7 µM); MIC [24]: ≤ 0.008 µg/mL; MIC [25]: 8 µg/mL (≈ 13.6 µM); MIC [26]: 0.13 µg/mL (≈ 0.22 µM); MIC [27]: 0.13 µg/mL (≈ 0.22 µM); MIC50 (Klebsiella pneumoniae): 0.25 µg/mL (≈ 0.424 µM); MIC90 (Klebsiella pneumoniae): 0.25 µg/mL (≈ 0.424 µM)
